Results: patent publication US20240009165A1, “GRISEOFULVIN AS AN ADJUNCT DRUG FOR THE TREATMENT OF CEREBRAL AND SEVERE MALARIA” (priority 2020, published 2024)

Legend:
P. berghei ANKA [1] = assay: α,β-arteether alone or with griseofulvin in preventing CM in mice; assay type: in vivo
Procedure: Griseofulvin treatment in mice. Griseofulvin was prepared by dissolving 1 or 2 mg in 40 μl DMSO and then making up the volume to 200 μl with 10% solutol HS 15 in saline. The mixture was vortexed thoroughly for 10 min to form an emulsion and injected intraperitoneally into the mice. All single dose injections were carried out at 06:00 h and double dose injections were carried out at 06:00 h and 18:00 h for the respective days. Control mice were injected with the solvent. α,β-arteether (E MAL) was administered intramuscularly. For experiments involving the combination of α,β-arteether and griseofulvin, α,β-arteether was administered intramuscularly at 06:00 h on day 6, followed by two doses of griseofulvin at 24 h interval (at 09:00 h on day 6 and 7).

P. berghei ANKA [2] = assay: Growth curve analysis (peripheral blood parasitemia) in treated mice; assay type: in vivo; details: 2 mg dose per day on day 4, 5, 6, 7 and 8; C57BL/6 mice
Description: The present invention evaluated the potential of griseofulvin in preventing CM and treated WT-infected C57BL/6 mice from day 4 when the blood parasitemia was around 2%, and examined for CM pathogenesis. […] While ˜80% of the control mice succumbed to CM within day 10, more than 80% of the griseofulvin-treated mice were protected from CM. […] While the anemia mortality in CM-escaped control mice occurred within day 17, more than 80% of the griseofulvin-treated mice could survive beyond day 20 with almost 50% of them surviving even beyond day 24. […] To confirm that the CM protection is due to inhibition of parasite heme synthesis, the present invention analyzed heme synthesis in griseofulvin-treated and -untreated WT parasites by incubating the in vivo-treated pRBCs in vitro with ^14C-ALA (committed precursor of heme synthesis) for 9 h. […]
Routine propagation of P. berghei in mice and CM experiments. […] Peripheral blood parasitemia was monitored by performing light microscopy for Giemsa stained thin blood smears prepared from tail vein blood. […] The development and progression of ECM were monitored by examining RMCBS for neurological symptoms. […] The extent of BBB damage was quantified by incubating the brain samples in formamide at 37° C. for 48 h, extracting the Evans blue and measuring the absorbance at 620 nm. […]

parasite heme synthesis = assay: 14C-ALA labelling of free heme in in vivo-treated pRBCs; assay type: cell-based, P. berghei; details: in vivo-treated pRBCs incubated in vitro with 14C-ALA for 9 h; vs untreated WT parasites
Description: The present invention evaluated the potential of griseofulvin in preventing CM and treated WT-infected C57BL/6 mice from day 4 when the blood parasitemia was around 2%, and examined for CM pathogenesis. […] While ˜80% of the control mice succumbed to CM within day 10, more than 80% of the griseofulvin-treated mice were protected from CM. […] While the anemia mortality in CM-escaped control mice occurred within day 17, more than 80% of the griseofulvin-treated mice could survive beyond day 20 with almost 50% of them surviving even beyond day 24. […]
Labelling studies with ^14C-ALA. […] For ^14C-ALA labelling, blood samples were collected from griseofulvin treated and control WT-infected mice around 16:00 h and the labelling was carried out for 9 h at a radioactivity of […]. […] The upper phase was separated, dried under nitrogen stream, dissolved in methanol and analysed by TLC on silica gel using the mobile phase 2,6-lutidine and water (5:3 v/v) in ammonia atmosphere. The intensity of radiolabelling was scanned using Biomolecular Imager by exposing the TLC sheets to phosphorimager screen and the radioactive counts were measured.

P. berghei ANKA [3] = assay: Plasma heme, hemopexin and hemoglobin estimation in infected mice; assay type: in vivo; details: griseofulvin-treated WT-infected mice
Procedure: (§1) Heme, Hz, hemoglobin and hemopexin estimations. Free heme levels in the plasma samples of WT- and KO-infected mice were quantified using Hemin colorimetric assays. The assay is specific for free heme and it utilizes peroxidase activity of hemin to facilitate the conversion of a colorless probe to a strongly colored compound with absorbance at 570 nm. The quantification of free heme in the parasite lysates was carried out by resuspending the parasite pellets in 5 volumes of hypotonic lysis buffer containing 5 mM Tris pH 7.5 with protease inhibitors and incubating them in ice for 30 min. The lysates were then centrifuged at 20,000 g for 20 min, 4° C., and the supernatants obtained were used for free heme estimation as mentioned above for the plasma samples. The Hz content of the WT and KO parasite pellets was estimated as described. The parasite pellet was resuspended in 1 ml of 100 mM sodium acetate buffer, pH 5.0 and left at 37° C. for overnight, followed by centrifugation at 10,000 g for 5 min. The resultant pellet was resuspended in 100 mM Tris buffer pH 8.0 containing 2.5% SDS and incubated at 37° C. for 30 min, followed by centrifugation at 10,000 g for 5 min. The pellet obtained was washed once with 100 mM alkaline bicarbonate pH 9.2 and then with distilled water. The final Hz pellet was dissolved in 100 mM NaOH containing 2.5% SDS, and the absorbance was measured at 405 nm. The supernatants of sodium acetate and Tris SDS steps were collected to estimate the protein content by Micro BCA protein assay kit and heme content of the Hz was expressed per mg of total protein. To estimate the Hz content in the spleen and liver of the WT- and KO-infected mice, 50 mg tissue of the respective organs was homogenized in 50 mM Tris pH 8.0 containing 50 mM NaCl, 5 mM CaCl2 and 1% Triton X-100, and incubated for 12 h at 37° C. in the presence of proteinase K. The lysates were sonicated and centrifuged at 15,000 g for 30 min. The pellets obtained were resuspended with 100 mM sodium bicarbonate containing 2% SDS and sonicated, followed by centrifugation at 15,000 g for 15 min. After repeating this step thrice, the pellets were solubilized in 100 mM NaOH containing 2% SDS and 3 mM EDTA, and the absorbance was measured at 405 nm. In parallel, the parasite load in the organs was examined by quantitative PCR (qPCR) analysis carried out with Pb18SrRNA primers for the total RNA isolated from 30 mg tissue of the organs. After normalizing with respect to the parasite load, the total heme content of the Hz isolated was expressed per mg weight of the organ. Hemoglobin and hemopexin levels in the plasma samples of WT- and KO-infected mice were measured by ELISA.

P. berghei ANKA [4] = assay: Histochemical and immunofluorescence analyses of brain sections; assay type: in vivo; details: griseofulvin-treated WT-infected mice
Procedure: Histological and immunofluorescence analyses of cerebral pathology in the brain of infected mice. For H&E staining to assess vascular blockage, hemorrhages and demyelination, brain samples were fixed with formalin for 72 hours at room temperature. After dehydrating with ethanol and treating with xylene, paraffin embedded blocks were made and sections of 7 μm thickness were prepared using rotary microtome. The sections were then processed and stained with H&E using standard protocols. Immunohistochemical analysis of IgG extravasation in the brain sections was carried out as described. Brain sections of 30 μm thickness was antigen retrieved by treating them at 95° C. for 30 min in sodium citrate buffer pH 6.0, followed by blocking with 3% H2O2 at room temperature for 30 min to prevent endogenous peroxidase activity. The sections were then incubated with HRP-conjugated goat anti-mouse IgG at 1:250 dilution in PBS containing 0.3% Triton X-100 and 0.1% BSA, followed by developing with diaminobenzidine tetrahydrochloride and counterstaining with hematoxilin. Immunofluorescence analysis of brain sections for parasite sequestration was carried out by fixing the brain samples in 4% paraformaldehyde in PBS containing 20% sucrose for 24 h at 4° C. and cryoprotecting them for 48 h in PBS containing 20% sucrose. Coronal sections of 30 μm thickness was prepared using cryostat microtome and antigen retrieval was carried out by treating them at 95° C. for 30 min in sodium citrate buffer pH 9.0. After blocking with 1% BSA, the sections were incubated with anti-CD31 mouse monoclonal antibody conjugated with Alexa Fluor 594 and anti-PbGAPDH rabbit polyclonal serum or anti-mouse CD3 rat monoclonal antibody for 16 h at 4° C. The sections were then treated with FITC-conjugated donkey anti-rabbit IgG or FITC-conjugated goat anti-rat IgG (1:200 dilution), followed by 4′,6-diamidino-2-phenylindole (DAPI) staining. Anti-mouse β-APP rabbit polyclonal antibody was used in 1:200 dilution.

P. berghei ANKA [5] = assay: Evans blue extravasation in the brain (BBB integrity); assay type: in vivo; details: griseofulvin-treated WT-infected mice; brain on day 8 post-infection
Description: (§2) Routine propagation of P. berghei in mice and CM experiments. P. berghei ANKA WT and KO parasites were propagated in C57BL/6 male/female mice of 7-8 weeks old. Peripheral blood parasitemia was monitored by performing light microscopy for Giemsa stained thin blood smears prepared from tail vein blood. When the blood parasitemia was around 10%, 10^5 P. berghei ANKA WT or 10^5/10^7 ALAS/FC KO parasites were collected and injected intraperitoneally in 7-8 weeks old C57BL/6 male/female naïve mice to initiate CM experiments. Growth curve analysis was carried out by monitoring the blood parasitemia. The development and progression of ECM were monitored by examining RMCBS for neurological symptoms. To assess BBB integrity, Evans blue uptake assays were carried out by injecting 200 μl of 2% Evans blue in PBS intravenously and examining the extravasation of dye after one hour in the brain of the infected mice that were transcardially perfused with PBS. The extent of BBB damage was quantified by incubating the brain samples in formamide at 37° C. for 48 h, extracting the Evans blue and measuring the absorbance at 620 nm.

P. berghei ANKA [6] = assay: Cerebral malaria (CM) protection and mortality of PbWT-infected mice treated with griseofulvin; assay type: in vivo
Description: The present invention evaluated the potential of griseofulvin in preventing CM and treated WT-infected C57BL/6 mice from day 4 when the blood parasitemia was around 2%, and examined for CM pathogenesis. […] While ˜80% of the control mice succumbed to CM within day 10, more than 80% of the griseofulvin-treated mice were protected from CM. […] While the anemia mortality in CM-escaped control mice occurred within day 17, more than 80% of the griseofulvin-treated mice could survive beyond day 20 with almost 50% of them surviving even beyond day 24. […] To confirm that the CM protection is due to inhibition of parasite heme synthesis, the present invention analyzed heme synthesis in griseofulvin-treated and -untreated WT parasites by incubating the in vivo-treated pRBCs in vitro with ^14C-ALA (committed precursor of heme synthesis) for 9 h. There was around 60% decrease in the ^14C-labelling of free heme in griseofulvin-treated parasites. […] As observed for the KO parasites, the total Hz content in the griseofulvin-treated parasites was around 50-60% less when compared with untreated parasites and there was also close to 60% decrease in the free heme levels.
as §2
Griseofulvin treatment in mice. Griseofulvin was prepared by dissolving 1 or 2 mg in 40 μl DMSO and then making up the volume to 200 μl with 10% solutol HS 15 in saline. The mixture was vortexed thoroughly for 10 min to form an emulsion and injected intraperitoneally into the mice. All single dose injections were carried out at 06:00 h and double dose injections were carried out at 06:00 h and 18:00 h for the respective days. […]

Plasmodium falciparum = details: humans infected with Plasmodium falciparum; reference (34); cited from earlier work
hemozoin (Hz) formation = assay: Hemozoin and free heme estimation in parasites; assay type: in vivo, P. berghei
Procedure: as §1, with “To estimate the Hz content in the spleen and liver of the WT- and KO-infected mice, 50 mg tissue of the respective organs was homogenized in 50 mM Tris pH 8.0 containing 50 mM NaCl, 5 mM CaCl2 and 1% Triton X-100, and incubated for 12 h at 37° C. in the presence of proteinase K. The lysates were sonicated and centrifuged at 15,000 g for 30 min. The pellets obtained were resuspended with 100 mM sodium bicarbonate containing 2% SDS and sonicated, followed by centrifugation at 15,000 g for 15 min.” left out, “After normalizing with respect to the parasite load, the total heme content of the Hz isolated was expressed per mg weight of the organ.” left out

[7] = griseofulvin-treated WT parasites vs untreated

| Structure (SMILES) | peripheral parasitemia in blood smears (P. berghei ANKA [1]; single intramuscular dose of 0.25 mg/mouse on day 6) | WT-infected mice developing CM (P. berghei ANKA [1]; single intramuscular dose of 0.25 mg/mouse on day 6, parasitemia around 10%) | growth curves of WT parasites in treated and untreated mice (P. berghei ANKA [2]) | decrease in 14C-labelling of free heme (parasite heme synthesis) | plasma heme/hemopexin ratio (P. berghei ANKA [3]) | plasma level of Hb (P. berghei ANKA [3]) | plasma level of heme (P. berghei ANKA [3]) | plasma level of hemopexin (P. berghei ANKA [3]) | intracerebral hemorrhages in brain sections (P. berghei ANKA [4]; H&E) | accumulation of CD3+ T cells in the cerebral vasculature (P. berghei ANKA [4]; immunofluorescence) | accumulation of parasites in the cerebral vasculature (P. berghei ANKA [4]; immunofluorescence) | Evans blue extravasation in the brain (P. berghei ANKA [5]) | mice protected from CM (P. berghei ANKA [6]; WT-infected C57BL/6 mice, single dose of 2 mg/day i.p. from day 4 until day 8, ~80% of control mice succumbed to CM within day 10) | delay in mortality due to anemia (P. berghei ANKA [6]; griseofulvin-treated WT-infected C57BL/6 mice vs CM-escaped control mice) | mice surviving beyond day 24 (P. berghei ANKA [6]; griseofulvin-treated WT-infected mice) | mice surviving beyond day 20 (P. berghei ANKA [6]; griseofulvin-treated WT-infected mice, anemia mortality in CM-escaped control mice within day 17) | in vivo parasite growth in humans (Plasmodium falciparum) | Hz content by light microscopy (hemozoin (Hz) formation; Giemsa-stained peripheral smears and paraformaldehyde-fixed pRBCs of treated mice) | decrease in free heme levels in parasites (hemozoin (Hz) formation; [7]) | total Hz content, less than untreated parasites (hemozoin (Hz) formation; [7]) |
| --- | --- | --- | --- | --- | --- | --- | --- | --- | --- | --- | --- | --- | --- | --- | --- | --- | --- | --- | --- | --- |
| CCO[C@H]1O[C@@H]2O[C@@]3(C)CC[C@H]4[C@H](C)CC[C@@H]([C@H]1C)[C@@]24OO3 [α,β-arteether] | clearance | 60-70% | – | – | – | – | – | – | – | – | – | – | – | – | – | – | – | – | – | – |
| COC1=CC(=O)C[C@@H](C)[C@]12Oc1c(Cl)c(OC)cc(OC)c1C2=O [griseofulvin] | – | – | very much comparable | around 60% | comparable to that of the KO-infected mice | comparable to that of the KO-infected mice | comparable to that of the KO-infected mice | comparable to that of the KO-infected mice | absence of intracerebral hemorrhages | lack of accumulation | lack of accumulation | less Evans blue extravasation | more than 80% | significant delay | around 50% | more than 80% | did not inhibit the in vivo parasite growth | less Hz content | around 60% | 50-60% |
